Reference: US9833497B2, “Human originated EGF domain proteins and use of the same” (CHENGDU SOURCEBIO LIMITED-LIABILITY COMPANY, priority 2013, dated 2017)

Legend:
Assay type in all cases: cell-based
[1] = system: E. coli BL21; experiment: MIC against Gram-negative bacteria: E. coli BL21; conditions: E. coli BL21; 10 h cultivation at 37° C.
Method in brief: (§1)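 Purified recombinant human EGF domain proteins are tested by broth dilution in LB against a 5×10^5 CFU/mL inoculum, with two-fold serial dilutions run in triplicate. Plates are incubated at 37° C with shaking, and the MIC is read as the lowest protein concentration without growth.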

[2] = system: Pseudomonas aeruginosa; experiment: MIC against Gram-negative bacteria: Pseudomonas aeruginosa; conditions: P. aeruginosa; 10 h cultivation at 37° C.
Method in brief: as §1

[3] = system: Moraxella catarrhalis; experiment: MIC against Gram-negative bacteria: Moraxella catarrhalis; conditions: M. catarrhalis; 10 h cultivation at 37° C.
Method in brief: as §1

[4] = system: Serratia marcescens; experiment: MIC against Gram-negative bacteria: Serratia marcescens; conditions: S. marcescens; 10 h cultivation at 37° C.
Method in brief: as §1

[5] = system: E. coli DH5α; experiment: Antibacterial activity: MIC and growth curve against E. coli DH5α in 96-well plate; conditions: minimal inhibitory concentration against E. coli DH5α; 96-well plate, 5×10^5 CFU/mL, 37° C., judged after 8 h
Method in brief: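 Log-phase DH5α (OD600 about 0.5, 37° C, 185 rpm in LB) was pelleted, resuspended in fresh LB and seeded at 5×10^5 CFU/mL with recombinant protein at 50, 25 and 12.5 μg/mL (two-fold series), in triplicate. Plates were shaken at 175 rpm, 37° C, and OD600 was read every 30 min. MIC was the lowest concentration with no growth.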

[6] = system: Enterobacter cloacae; experiment: MIC against Gram-negative bacteria: Enterobacter cloacae; conditions: E. cloacae; 10 h cultivation at 37° C.
Method in brief: as §1

[7] = system: Proteus vulgaris; experiment: MIC against Gram-negative bacteria: Proteus vulgaris; conditions: P. vulgaris; 10 h cultivation at 37° C.
Method in brief: as §1

[8] = system: Proteus mirabilis; experiment: MIC against Gram-negative bacteria: Proteus mirabilis; conditions: P. mirabilis; 10 h cultivation at 37° C.
Method in brief: as §1

[9] = system: Klebsiella pneumonia; experiment: MIC against Gram-negative bacteria: Klebsiella pneumonia; conditions: K. pneumonia; 10 h cultivation at 37° C.
Method in brief: as §1

[10] = system: Citrobacter diversus; experiment: MIC against Gram-negative bacteria: Citrobacter diversus; conditions: C. diversus; 10 h cultivation at 37° C.
Method in brief: as §1

[11] = system: Aeromonas hydrophila; experiment: MIC against Gram-negative bacteria: Aeromonas hydrophila; conditions: A. hydrophila; 10 h cultivation at 37° C.
Method in brief: as §1

| Substance | MIC [1] | MIC [2] | MIC [3] | MIC [4] | MIC [5] | MIC [6] | MIC [7] | MIC [8] | MIC [9] | MIC [10] | MIC [11] |
| --- | --- | --- | --- | --- | --- | --- | --- | --- | --- | --- | --- |
| PRT921 (NIDDCASAACFHGATCHDRVASFYCECPHGRTGLLCH; listed as Homo sapiens) | 12.5 µg/mL | 25 µg/mL | 25 µg/mL | 12.5 µg/mL | 12.5 µg/mL | 12.5 µg/mL | 25 µg/mL | 12.5 µg/mL | 12.5 µg/mL | 12.5 µg/mL | 25 µg/mL |
| PRT922 (LQCRDGYEPCVNEGMCVTYHNGTGYCKCPEGFLGEYCQ; listed as Homo sapiens) | 25 µg/mL | 12.5 µg/mL | 25 µg/mL | 12.5 µg/mL | 12.5 µg/mL | 25 µg/mL | 25 µg/mL | 50 µg/mL | 12.5 µg/mL | 25 µg/mL | 25 µg/mL |
| PRT923 (LDDACISNPCHKGALCDTNPLNGQYICTCPQGYKGADCT; listed as Homo sapiens) | 50 µg/mL | 25 µg/mL | 12.5 µg/mL | 25 µg/mL | 25 µg/mL | 12.5 µg/mL | 50 µg/mL | 25 µg/mL | 25 µg/mL | 25 µg/mL | 50 µg/mL |
| PRT924 (DVDECAMANSNPCEHAGKCVNTDGAFHCECLKGYAGPRCE; listed as Homo sapiens) | 25 µg/mL | 50 µg/mL | 50 µg/mL | 50 µg/mL | 12.5 µg/mL | 25 µg/mL | 12.5 µg/mL | 25 µg/mL | 12.5 µg/mL | 12.5 µg/mL | 50 µg/mL |
| PRT925 (DINECHSDPCQNDATCLDKIGGFTCLCMPGFKGVHCE; listed as Homo sapiens) | 25 µg/mL | 50 µg/mL | 12.5 µg/mL | 12.5 µg/mL | 12.5 µg/mL | 25 µg/mL | 50 µg/mL | 25 µg/mL | 12.5 µg/mL | 25 µg/mL | 50 µg/mL |
| PRT926 (EINECQSNPCVNNGQCVDKVNRFQCLCPPGFTGPVCQ; listed as Homo sapiens) | 50 µg/mL | 25 µg/mL | 25 µg/mL | 12.5 µg/mL | 25 µg/mL | 25 µg/mL | 25 µg/mL | 50 µg/mL | 12.5 µg/mL | 12.5 µg/mL | 50 µg/mL |
| PRT927 (DIDDCSSTPCLNGAKCIDHPNGYECQCATGFTGVLCE; listed as Homo sapiens) | 50 µg/mL | 25 µg/mL | 50 µg/mL | 50 µg/mL | 25 µg/mL | 25 µg/mL | 12.5 µg/mL | 25 µg/mL | 12.5 µg/mL | 12.5 µg/mL | 50 µg/mL |
| PRT928 (NIDNCDPDPCHHGQCQDGIDSYTCICNPGYMGAICS; listed as Homo sapiens) | 12.5 µg/mL | 25 µg/mL | 12.5 µg/mL | 25 µg/mL | 25 µg/mL | 25 µg/mL | 25 µg/mL | 12.5 µg/mL | 12.5 µg/mL | 25 µg/mL | 12.5 µg/mL |
| PRT929 (QIDECYSSPCLNDGRCIDLVNGYQCNCQPGTSGVNCE; listed as Homo sapiens) | 25 µg/mL | 12.5 µg/mL | 50 µg/mL | 12.5 µg/mL | 100 µg/mL | 50 µg/mL | 50 µg/mL | 12.5 µg/mL | 25 µg/mL | 12.5 µg/mL | 25 µg/mL |
| PRT930 (NFDDCASNPCIHGICMDGINRYSCVCSPGFTGQRCN; listed as Homo sapiens) | 12.5 µg/mL | 25 µg/mL | 50 µg/mL | 50 µg/mL | 50 µg/mL | 12.5 µg/mL | 12.5 µg/mL | 25 µg/mL | 50 µg/mL | 25 µg/mL | 25 µg/mL |
| PRT932 (QVNECLSNPCIHGNCTGGLSGYKCLCDAGWVGINCE; listed as Homo sapiens) | 50 µg/mL | 12.5 µg/mL | 12.5 µg/mL | 12.5 µg/mL | 25 µg/mL | 25 µg/mL | 12.5 µg/mL | 25 µg/mL | 12.5 µg/mL | 25 µg/mL | 12.5 µg/mL |
| PRT933 (HRDPCEKNRCQNGGTCVAQAMLGKATCRCASGFTGEDCQ; listed as Homo sapiens) | 25 µg/mL | 12.5 µg/mL | 50 µg/mL | 50 µg/mL | 12.5 µg/mL | 25 µg/mL | 12.5 µg/mL | 25 µg/mL | 50 µg/mL | 25 µg/mL | 12.5 µg/mL |
| PRT934 (DKNECLSNPCQNGGTCDNLVNGYRCTCKKGFKGYNCQ; listed as Homo sapiens) | 25 µg/mL | 50 µg/mL | 12.5 µg/mL | 50 µg/mL | 12.5 µg/mL | 50 µg/mL | 12.5 µg/mL | 50 µg/mL | 12.5 µg/mL | 25 µg/mL | 25 µg/mL |
| PRT935 (NIDECASNPCLNQGTCFDDISGYTCHCVLPYTGKNCQ; listed as Homo sapiens) | 25 µg/mL | 25 µg/mL | 12.5 µg/mL | 12.5 µg/mL | 12.5 µg/mL | 25 µg/mL | 12.5 µg/mL | 12.5 µg/mL | 12.5 µg/mL | 100 µg/mL | 25 µg/mL |
| PRT936 (VLAPCSPNPCENAAVCKESPNFESYTCLCAPGWQGQRCT; listed as Homo sapiens) | 12.5 µg/mL | 25 µg/mL | 12.5 µg/mL | 50 µg/mL | 25 µg/mL | 12.5 µg/mL | 12.5 µg/mL | 50 µg/mL | 50 µg/mL | 50 µg/mL | 25 µg/mL |
| PRT937 (DIDECISKPCMNHGLCHNTQGSYMCECPPGFSGMDCE; listed as Homo sapiens) | 12.5 µg/mL | 50 µg/mL | 12.5 µg/mL | 50 µg/mL | 25 µg/mL | 12.5 µg/mL | 12.5 µg/mL | 50 µg/mL | 25 µg/mL | 25 µg/mL | 50 µg/mL |
| PRT938 (DIDDCLANPCQNGGSCMDGVNTFSCLCLPGFTGDKCQ; listed as Homo sapiens) | 50 µg/mL | 25 µg/mL | 50 µg/mL | 12.5 µg/mL | 12.5 µg/mL | 25 µg/mL | 50 µg/mL | 12.5 µg/mL | 12.5 µg/mL | 12.5 µg/mL | 50 µg/mL |
| PRT939 (DMNECLSEPCKNGGTCSDYVNSYTCKCQAGFDGVHCE; listed as Homo sapiens) | 25 µg/mL | 12.5 µg/mL | 12.5 µg/mL | 50 µg/mL | 50 µg/mL | 50 µg/mL | 12.5 µg/mL | 50 µg/mL | 12.5 µg/mL | 50 µg/mL | 12.5 µg/mL |
| PRT941 (EINECSSHPCLNEGTCVDGLGTYRCSCPLGYTGKNCQ; listed as Homo sapiens) | 50 µg/mL | 12.5 µg/mL | 50 µg/mL | 12.5 µg/mL | 25 µg/mL | 12.5 µg/mL | 50 µg/mL | 12.5 µg/mL | 50 µg/mL | 12.5 µg/mL | 50 µg/mL |
